The values that follow come from the supplement of paper PMC8633005.

Test [1] deals with FM-MEL-6. The note with it: 72 h. As to the method:
(§1)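 Validation dose-response testing of selected drugs on NRAS-mutant melanoma patient-derived cells, run in 2D culture and in 3D spheroids (ultra-low attachment plates), in triplicate per concentration. Viability was read by CellTiter-Glo after 72 h. EC50 came from Breeze curve fitting, and DSS was calculated from the curve.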

Test [2] relates to FM-MEL-2. Particulars: 72 h. The method, then: as §1
For test [3], the system named is FM-MEL-3. Particulars: 72 h. As to the method:
as §1

The subject of the next test is SK-MEL-28. Briefly: drug sensitivity score (DSS) (DSS (unitless, 0-50 scale)); higher = more sensitive (stronger viability inhibition); extreme values may be limits of the assay. The note with it: 72 h; culture: 2D. In short, it runs like this:
(§2)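 Viability was measured by CellTiter-Glo luminescence after 72 h at 37 °C in 384-well plates holding a 527-compound oncology library, with patient-derived melanoma cultures (1000–1500 cells per well) and melanoma cell lines grown in 2D. Every compound was tested at five concentrations spanning a 10,000-fold range. The drug sensitivity score, a modified area under the curve, came from dose-response curves fitted with in-house Breeze software.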

For test [4], the system named is FM-MEL-6. The test is described as above. Particulars: 72 h; culture: 2D. In outline:
as §2

Test [5] relates to FM-MEL-2. The description is as above. The note with it: 72 h; culture: 2D. In short, it runs like this:
as §2

For test [6], the system named is FM-MEL-3. The test is described as above. Particulars: 72 h; culture: 2D. In short, it runs like this: as §2
In another test the test system is SK-MEL-2. The test is described as above. Particulars: 72 h; culture: 2D. In outline:
as §2

Another test has as its system Bowes. Described as above. Particulars: 72 h; culture: 2D. In short, it runs like this: as §2
The next test has as its system WM852. The description is as above. Particulars: 72 h; culture: 2D. In short, it runs like this:
as §2

In the next test the test system is WM165. Described as above. The note with it: 72 h; culture: 2D. In short, it runs like this:
as §2

For test [7], the system named is FM-MEL-6. Kind of test: drug sensitivity score (DSS) (DSS (unitless)); higher = more sensitive. The note with it: 72 h. The method, then:
as §1

Test [8] has as its system FM-MEL-2. The test is described as above. Particulars: 72 h. As to the method:
as §1

The subject of test [9] is FM-MEL-3. The description is as above. The note with it: 72 h. The method, then: as §1

As to `COc1ncc(-c2ccc3nccc(-c4ccnnc4)c3c2)cc1NS(=O)(=O)c1ccc(F)cc1F` [Omipalisib], the “EC50 (cell viability)” value in the test with FM-MEL-6 [1] (culture: 2D) was 5.5 nM; in the test on FM-MEL-6 [1] (culture: 3D spheroid) it was 4.4 nM; with FM-MEL-2 [2] (culture: 2D) it was 5.5 nM; in the test with FM-MEL-2 [2] (culture: 3D spheroid), 4 nM; in the test with FM-MEL-3 [3] (culture: 2D), 7.3 nM; in the test on FM-MEL-3 [3] (culture: 3D spheroid), 5.2 nM. Also, the drug sensitivity score was found to be 16.3 with SK-MEL-28; 14.7 in the test with FM-MEL-6 [4]; 15.3 in the test on FM-MEL-2 [5]; 17.9 with FM-MEL-3 [6]; 9.5 with SK-MEL-2; 16.9 in the test with Bowes. The drug sensitivity score with WM852 is 13.8; with WM165, 15.5; in the test on FM-MEL-6 [7] (culture: 2D), 14.9; in the test on FM-MEL-6 [7] (culture: 3D spheroid), 19; in the test on FM-MEL-2 [8] (culture: 2D), 16.9; in the test with FM-MEL-2 [8] (culture: 3D spheroid), 17.5. Further, the drug sensitivity score with FM-MEL-3 [9] (culture: 2D) stood at 24.1; with FM-MEL-3 [9] (culture: 3D spheroid), 27.3.

On to `COc1cccc(OCCCN)c1-c1cc(Nc2cnc(C#N)cn2)n[nH]1` [Prexasertib], for which the “EC50 (cell viability)” value with FM-MEL-6 [1] (culture: 2D) was determined as 137 nM; in the test on FM-MEL-6 [1] (culture: 3D spheroid), 6570 nM; in the test on FM-MEL-2 [2] (culture: 2D), 851 nM; in the test on FM-MEL-2 [2] (culture: 3D spheroid) it was 2030 nM; in the test with FM-MEL-3 [3] (culture: 2D), 52 nM; with FM-MEL-3 [3] (culture: 3D spheroid), 48.7 nM. Further, the drug sensitivity score in the test with SK-MEL-28 is 8.6; with FM-MEL-6 [4] it was 26.6; in the test with FM-MEL-2 [5], 10.5; in the test on FM-MEL-3 [6] it was 19.1; in the test on SK-MEL-2 it was 28.7; in the test with Bowes it was 28.6. Further, the drug sensitivity score worked out at 27.7 with WM852; 24.1 in the test on WM165; 6.4 in the test on FM-MEL-6 [7] (culture: 2D); 0.8 in the test on FM-MEL-6 [7] (culture: 3D spheroid); 7.7 in the test on FM-MEL-2 [8] (culture: 2D); 4.9 in the test on FM-MEL-2 [8] (culture: 3D spheroid). Moreover, the values for the drug sensitivity score in the test with FM-MEL-3 [9] (culture: 2D) and with FM-MEL-3 [9] (culture: 3D spheroid) were 21.1 and 25.6, respectively.

On to `CC(C)(C)c1cc(NC(=O)Nc2ccc(-c3cn4c(n3)sc3cc(OCCN5CCOCC5)ccc34)cc2)no1` [Quizartinib], for which the “EC50 (cell viability)” value in the test on FM-MEL-6 [1] (culture: 2D) is greater than 1000 nM; in the test on FM-MEL-6 [1] (culture: 3D spheroid) it was greater than 1000 nM; in the test with FM-MEL-2 [2] (culture: 2D) it was 95.7 nM; in the test on FM-MEL-2 [2] (culture: 3D spheroid) it was 45.3 nM; in the test on FM-MEL-3 [3] (culture: 2D), greater than 1000 nM; with FM-MEL-3 [3] (culture: 3D spheroid), greater than 1000 nM. For the same compound, the drug sensitivity score was 0 in the test with SK-MEL-28; 0 with FM-MEL-6 [4]; 10.5 in the test on FM-MEL-2 [5]; 5.1 with FM-MEL-3 [6]; 0 in the test on SK-MEL-2; 1.2 in the test with Bowes. For the same compound, the drug sensitivity score stood at 0.3 with WM852; 1 with WM165; 0 in the test on FM-MEL-6 [7] (culture: 2D); 0 in the test on FM-MEL-6 [7] (culture: 3D spheroid); 10.5 in the test on FM-MEL-2 [8] (culture: 2D); 14.5 in the test on FM-MEL-2 [8] (culture: 3D spheroid). The drug sensitivity score with FM-MEL-3 [9] (culture: 2D) and in the test with FM-MEL-3 [9] (culture: 3D spheroid) was 0 throughout.

Turning to `COc1cc(OC)c(/C=C/S(=O)(=O)Cc2ccc(OC)c(NCC(=O)O)c2)c(OC)c1` [Rigosertib], the “EC50 (cell viability)” value in the test with FM-MEL-6 [1] (culture: 2D) is 56.2 nM; with FM-MEL-6 [1] (culture: 3D spheroid), 1540 nM; in the test on FM-MEL-2 [2] (culture: 2D) it was 44.2 nM; in the test on FM-MEL-2 [2] (culture: 3D spheroid) it was 110 nM; with FM-MEL-3 [3] (culture: 2D), 42 nM; with FM-MEL-3 [3] (culture: 3D spheroid) it was 39.2 nM. The drug sensitivity score with SK-MEL-28 was found to be 9.5; in the test with FM-MEL-6 [4] it was 18.6; with FM-MEL-2 [5], 7.6; in the test on FM-MEL-3 [6], 15.5; with SK-MEL-2, 17; in the test on Bowes, 19.9. Further, the drug sensitivity score came out at 22.6 with WM852; 21.4 with WM165; 8.6 with FM-MEL-6 [7] (culture: 2D); 1.3 in the test on FM-MEL-6 [7] (culture: 3D spheroid); 10.8 with FM-MEL-2 [8] (culture: 2D); 10.5 in the test on FM-MEL-2 [8] (culture: 3D spheroid). In addition, the values for the drug sensitivity score with FM-MEL-3 [9] (culture: 2D) and in the test with FM-MEL-3 [9] (culture: 3D spheroid) were 13.2 and 16.9, respectively.

With `Cn1cnc2c(F)c(Nc3ccc(Br)cc3Cl)c(C(=O)NOCCO)cc21` [Selumetinib], the “EC50 (cell viability)” value came out at 83.6 nM in the test with FM-MEL-6 [1] (culture: 2D); 56.1 nM in the test on FM-MEL-6 [1] (culture: 3D spheroid); 75.6 nM in the test on FM-MEL-2 [2] (culture: 2D); 71 nM with FM-MEL-2 [2] (culture: 3D spheroid); 78.9 nM with FM-MEL-3 [3] (culture: 2D); 56.4 nM in the test with FM-MEL-3 [3] (culture: 3D spheroid). The drug sensitivity score in the test on SK-MEL-28 was determined as 18.2; in the test on FM-MEL-6 [4] it was 13; in the test with FM-MEL-2 [5], 16.5; in the test on FM-MEL-3 [6] it was 24.9; in the test with SK-MEL-2, 13.2; with Bowes, 0. In addition, the drug sensitivity score in the test on WM852 was 4.9; with WM165, 17.3; in the test with FM-MEL-6 [7] (culture: 2D), 16.3; in the test with FM-MEL-6 [7] (culture: 3D spheroid), 21.9; in the test on FM-MEL-2 [8] (culture: 2D) it was 19.7; in the test with FM-MEL-2 [8] (culture: 3D spheroid), 20.3. Besides, the results for the drug sensitivity score with FM-MEL-3 [9] (culture: 2D) and with FM-MEL-3 [9] (culture: 3D spheroid) were 23.8 and 27.1, respectively.

As to `CC(=O)Nc1cccc(-n2c(=O)n(C3CC3)c(=O)c3c(Nc4ccc(I)cc4F)n(C)c(=O)c(C)c32)c1` [Trametinib], the “EC50 (cell viability)” value in the test with FM-MEL-6 [1] (culture: 2D) came out at 1.3 nM; in the test with FM-MEL-6 [1] (culture: 3D spheroid) it was 0.5 nM; in the test on FM-MEL-2 [2] (culture: 2D), 0.6 nM; with FM-MEL-2 [2] (culture: 3D spheroid), 0.5 nM; in the test on FM-MEL-3 [3] (culture: 2D), 0.8 nM; in the test on FM-MEL-3 [3] (culture: 3D spheroid) it was 0.2 nM. For the same compound, the drug sensitivity score with SK-MEL-28 was 21.1; in the test on FM-MEL-6 [4], 15.6; in the test with FM-MEL-2 [5], 18.1; in the test on FM-MEL-3 [6], 26.1; in the test with SK-MEL-2 it was 17.9; in the test with Bowes it was 1.8. Besides, the drug sensitivity score in the test with WM852 is 6.8; in the test with WM165 it was 21.2; with FM-MEL-6 [7] (culture: 2D), 17.1; with FM-MEL-6 [7] (culture: 3D spheroid) it was 24; in the test with FM-MEL-2 [8] (culture: 2D), 22.3; in the test on FM-MEL-2 [8] (culture: 3D spheroid), 23.3. Besides, the drug sensitivity score turned out to be 27.6 in the test on FM-MEL-3 [9] (culture: 2D) and 34.6 in the test with FM-MEL-3 [9] (culture: 3D spheroid).

Regarding `CC(C)Nc1cc(-c2c[nH]c(C(=O)N[C@H](CO)c3cccc(Cl)c3)c2)c(Cl)cn1` [Ulixertinib], the “EC50 (cell viability)” value in the test with FM-MEL-6 [1] (culture: 2D) amounted to 236 nM; in the test on FM-MEL-6 [1] (culture: 3D spheroid) it was 125 nM; in the test on FM-MEL-2 [2] (culture: 2D), 127 nM; in the test on FM-MEL-2 [2] (culture: 3D spheroid), 76 nM; with FM-MEL-3 [3] (culture: 2D), 279 nM; with FM-MEL-3 [3] (culture: 3D spheroid), 83.1 nM. Moreover, the drug sensitivity score in the test on SK-MEL-28 is 13.3; with FM-MEL-6 [4] it was 7.6; with FM-MEL-2 [5], 15; in the test on FM-MEL-3 [6] it was 17.1; in the test with SK-MEL-2, 9.7; in the test with Bowes, 4.2. Moreover, the drug sensitivity score in the test on WM852 was determined as 4.1; in the test with WM165, 12.6; in the test on FM-MEL-6 [7] (culture: 2D), 8.1; with FM-MEL-6 [7] (culture: 3D spheroid), 15.3; in the test with FM-MEL-2 [8] (culture: 2D), 16.5; in the test on FM-MEL-2 [8] (culture: 3D spheroid), 19.4. The drug sensitivity score came out at 17 in the test on FM-MEL-3 [9] (culture: 2D) and 25.2 in the test on FM-MEL-3 [9] (culture: 3D spheroid).
